{"source": "paper PMC11076327", "about": "“CXCR2 antagonist navarixin in combination with pembrolizumab in select advanced solid tumors: a phase 2 randomized trial” (Investigational New Drugs, 2024)", "key": {"[1]": {"test": "Navarixin pharmacokinetics in combination with pembrolizumab", "format": "in vivo, human", "conditions": "for tlast: median (range); for AUC(0-inf) / AUC(0-t) / Cmax: human, plasma, oral, geometric mean (% geometric CV); for Geometric mean trough concentration: all tumor types combined", "from_the_text": "Primary endpoints were objective response rate (ORR; proportion of patients with confirmed complete or partial response) by RECIST v1.1 as assessed by the investigator and safety based on the occurrence of dose-limiting toxicities (DLTs), adverse events (AEs), and treatment discontinuations because of AEs. Secondary endpoints included investigator-assessed ORR by immune-related RECIST (iRECIST), investigator-assessed progression-free survival (PFS; time from first dose of study drug until the first documented disease progression or death from any cause) by RECIST v1.1 and iRECIST, overall survival (OS; time from first dose of study drug until death from any cause), pharmacodynamics (assessed via changes in ANC), and PK of navarixin when administered in combination with pembrolizumab.\nBlood samples for assessment of ANC were collected predose on day 1 of every cycle; between 6 and 12 hours after dosing on days 1, 3, and 8 of cycle 1; and between 6 and 12 hours after dosing on day 1 of cycle 2. Blood samples for assessment of navarixin pharmacokinetic parameters were collected predose and at 1, 2, 4, 6, and between 8 and 12 hours after dosing on day 1 of cycle 1; predose and between 6 and 12 hours after dosing on days 3 and 8 of cycle 1; predose and at 1, 2, 4, 6, and between 8 and 12 hours after dosing on day 1 of cycle 2; and predose during cycles 3 and 4. […]"}, "[2]": {"test_system": "absolute neutrophil count (ANC) and sputum neutrophil count", "set-up": "method as in PMID 25695403, PMID 22702508", "conditions": "patients with chronic obstructive pulmonary disease and asthma; ref [10], [11]; cited from earlier work"}, "[3]": {"test_system": "metastatic castration-resistant prostate cancer (CRPC) preclinical models", "set-up": "method as in PMID 31801883", "conditions": "ref [6]; cited from earlier work"}, "[4]": {"test_system": "CRC", "conditions": "CRC in vivo; ref [13], [14]; cited from earlier work"}, "[5]": {"test_system": "melanoma", "conditions": "melanoma in vivo; ref [13], [14]; cited from earlier work"}, "[6]": {"test_system": "triple-negative breast cancer cells", "set-up": "method as in PMID 30396947, PMID 29749433", "conditions": "ref [15], [16]; cited from earlier work"}, "[7]": {"test_system": "pancreatic ductal adenocarcinoma cells", "set-up": "method as in PMID 30396947, PMID 29749433", "conditions": "ref [15], [16]; cited from earlier work"}, "[8]": {"test_system": "liver metastases", "set-up": "method as in PMID 21035946", "conditions": "liver metastases in vivo; ref [17]; cited from earlier work"}, "[9]": {"test_system": "metastatic triple-negative breast cancer", "set-up": "method as in PMID 34476645", "conditions": "in combination with paclitaxel; ref [35]; cited from earlier work"}, "[10]": {"test_system": "treatment-refractory metastatic CRPC", "set-up": "method as in PMID 31774688", "conditions": "pembrolizumab monotherapy, 9/199, ref [22]; cited from earlier work"}, "[11]": {"test_system": "mismatch repair–proficient CRC", "set-up": "method as in PMID 26028255", "conditions": "18 patients with mismatch repair–proficient CRC; ref [21]; cited from earlier work"}, "[12]": {"test_system": "previously treated advanced NSCLC", "set-up": "method as in PMID 31154919", "conditions": "pembrolizumab monotherapy; previously treated advanced NSCLC cohort; 103/449; ref [24]; cited from earlier work"}, "[13]": {"conditions": "CRPC, navarixin 30 mg + pembrolizumab 200 mg, Cycle 1 day 1, n=20"}, "[14]": {"conditions": "CRPC, navarixin 30 mg + pembrolizumab 200 mg, Cycle 2 day 1 (steady state), n=18"}, "[15]": {"conditions": "CRPC, navarixin 100 mg + pembrolizumab 200 mg, Cycle 1 day 1, n=20"}, "[16]": {"conditions": "CRPC, navarixin 100 mg + pembrolizumab 200 mg, Cycle 2 day 1 (steady state), n=17"}, "[17]": {"conditions": "MSS CRC, navarixin 30 mg + pembrolizumab 200 mg, Cycle 1 day 1, n=19"}, "[18]": {"conditions": "MSS CRC, navarixin 30 mg + pembrolizumab 200 mg, Cycle 2 day 1 (steady state), n=15"}, "[19]": {"conditions": "MSS CRC, navarixin 100 mg + pembrolizumab 200 mg, Cycle 1 day 1, n=21"}, "[20]": {"conditions": "MSS CRC, navarixin 100 mg + pembrolizumab 200 mg, Cycle 2 day 1 (steady state), n=18"}, "[21]": {"conditions": "NSCLC, navarixin 30 mg + pembrolizumab 200 mg, Cycle 1 day 1, n=12"}, "[22]": {"conditions": "NSCLC, navarixin 30 mg + pembrolizumab 200 mg, Cycle 2 day 1 (steady state), n=12"}, "[23]": {"conditions": "NSCLC, navarixin 100 mg + pembrolizumab 200 mg, Cycle 1 day 1, n=13"}, "[24]": {"conditions": "NSCLC, navarixin 100 mg + pembrolizumab 200 mg, Cycle 2 day 1 (steady state), n=11"}}, "data": [{"molecule": "CC[C@@H](Nc1c(Nc2cccc(C(=O)N(C)C)c2O)c(=O)c1=O)c1ccc(C)o1", "note": "[Navarixin]", "values": [{"measurement": "tlast", "setting": "[1]; [13]", "value": "8.00 (7.83–10.00) h"}, {"measurement": "tlast", "setting": "[1]; [14]", "value": "8.01 (6.50–8.70) h"}, {"measurement": "tlast", "setting": "[1]; [15]", "value": "8.00 (7.37–8.08) h"}, {"measurement": "tlast", "setting": "[1]; [16]", "value": "8.00 (5.93–8.17) h"}, {"measurement": "tlast", "setting": "[1]; [17]", "value": "8.0 (7.27–8.33) h"}, {"measurement": "tlast", "setting": "[1]; [18]", "value": "7.93 (6.00–8.17) h"}, {"measurement": "tlast", "setting": "[1]; [19]", "value": "8.00 (7.12–10.02) h"}, {"measurement": "tlast", "setting": "[1]; [20]", "value": "8.00 (7.87–8.13) h"}, {"measurement": "tlast", "setting": "[1]; [21]", "value": "8.00 (7.83–8.25) h"}, {"measurement": "tlast", "setting": "[1]; [22]", "value": "8.00 (7.80–8.08) h"}, {"measurement": "tlast", "setting": "[1]; [23]", "value": "8.00 (6.00–8.07) h"}, {"measurement": "tlast", "setting": "[1]; [24]", "value": "8.00 (6.03–8.08) h"}, {"measurement": "AUC0-∞, navarixin 100 mg versus navarixin 30 mg", "setting": "[1]; across all tumor types", "value": "approximately 2.5 fold"}, {"measurement": "AUC(0-inf)", "setting": "[1]; CRPC, navarixin 30 mg + pembrolizumab 200 mg, Cycle 1 day 1, n=19", "value": 376, "unit": "ng·h/mL"}, {"measurement": "AUC(0-t)", "setting": "[1]; [13]", "value": 363, "unit": "ng·h/mL"}, {"measurement": "AUC(0-inf)", "setting": "[1]; [14]", "value": 534, "unit": "ng·h/mL"}, {"measurement": "AUC(0-t)", "setting": "[1]; [14]", "value": 457, "unit": "ng·h/mL"}, {"measurement": "Cmax", "setting": "[1]; [14]", "value": 191, "unit": "ng/mL"}, {"measurement": "AUC(0-inf)", "setting": "[1]; CRPC, navarixin 100 mg + pembrolizumab 200 mg, Cycle 1 day 1, n=18", "value": 954, "unit": "ng·h/mL"}, {"measurement": "AUC(0-t)", "setting": "[1]; [15]", "value": 853, "unit": "ng·h/mL"}, {"measurement": "AUC(0-inf)", "setting": "[1]; CRPC, navarixin 100 mg + pembrolizumab 200 mg, Cycle 2 day 1 (steady state), n=11", "value": 1340, "unit": "ng·h/mL"}, {"measurement": "AUC(0-t)", "setting": "[1]; [16]", "value": 925, "unit": "ng·h/mL"}, {"measurement": "Cmax", "setting": "[1]; [16]", "value": 272, "unit": "ng/mL"}, {"measurement": "AUC(0-inf)", "setting": "[1]; MSS CRC, navarixin 30 mg + pembrolizumab 200 mg, Cycle 1 day 1, n=17", "value": 482, "unit": "ng·h/mL"}, {"measurement": "AUC(0-t)", "setting": "[1]; [17]", "value": 464, "unit": "ng·h/mL"}, {"measurement": "Cmax", "setting": "[1]; [17]", "value": 162, "unit": "ng/mL"}, {"measurement": "AUC(0-inf)", "setting": "[1]; MSS CRC, navarixin 30 mg + pembrolizumab 200 mg, Cycle 2 day 1 (steady state), n=10", "value": 584, "unit": "ng·h/mL"}, {"measurement": "AUC(0-t)", "setting": "[1]; [18]", "value": 443, "unit": "ng·h/mL"}, {"measurement": "Cmax", "setting": "[1]; [18]", "value": 147, "unit": "ng/mL"}, {"measurement": "AUC(0-inf)", "setting": "[1]; MSS CRC, navarixin 100 mg + pembrolizumab 200 mg, Cycle 1 day 1, n=16", "value": 1120, "unit": "ng·h/mL"}, {"measurement": "AUC(0-t)", "setting": "[1]; [19]", "value": 1070, "unit": "ng·h/mL"}, {"measurement": "Cmax", "setting": "[1]; [19]", "value": 354, "unit": "ng/mL"}, {"measurement": "AUC(0-inf)", "setting": "[1]; MSS CRC, navarixin 100 mg + pembrolizumab 200 mg, Cycle 2 day 1 (steady state), n=9", "value": 954, "unit": "ng·h/mL"}, {"measurement": "AUC(0-t)", "setting": "[1]; [20]", "value": 928, "unit": "ng·h/mL"}, {"measurement": "Cmax", "setting": "[1]; [20]", "value": 276, "unit": "ng/mL"}, {"measurement": "AUC(0-inf)", "setting": "[1]; NSCLC, navarixin 30 mg + pembrolizumab 200 mg, Cycle 1 day 1, n=10", "value": 469, "unit": "ng·h/mL"}, {"measurement": "AUC(0-t)", "setting": "[1]; [21]", "value": 427, "unit": "ng·h/mL"}, {"measurement": "Cmax", "setting": "[1]; [21]", "value": 181, "unit": "ng/mL"}, {"measurement": "AUC(0-inf)", "setting": "[1]; NSCLC, navarixin 30 mg + pembrolizumab 200 mg, Cycle 2 day 1 (steady state), n=10", "value": 450, "unit": "ng·h/mL"}, {"measurement": "AUC(0-t)", "setting": "[1]; [22]", "value": 451, "unit": "ng·h/mL"}, {"measurement": "Cmax", "setting": "[1]; [22]", "value": 179, "unit": "ng/mL"}, {"measurement": "AUC(0-inf)", "setting": "[1]; NSCLC, navarixin 100 mg + pembrolizumab 200 mg, Cycle 1 day 1, n=9", "value": 1230, "unit": "ng·h/mL"}, {"measurement": "AUC(0-t)", "setting": "[1]; [23]", "value": 1140, "unit": "ng·h/mL"}, {"measurement": "Cmax", "setting": "[1]; [23]", "value": 324, "unit": "ng/mL"}, {"measurement": "AUC(0-inf)", "setting": "[1]; NSCLC, navarixin 100 mg + pembrolizumab 200 mg, Cycle 2 day 1 (steady state), n=7", "value": 1360, "unit": "ng·h/mL"}, {"measurement": "AUC(0-t)", "setting": "[1]; [24]", "value": 1080, "unit": "ng·h/mL"}, {"measurement": "Cmax", "setting": "[1]; [24]", "value": 338, "unit": "ng/mL"}, {"measurement": "Cmax", "setting": "[1]; male, CRPC, navarixin 30 mg + pembrolizumab 200 mg, Cycle 1 day 1, n=20", "value": 156, "unit": "ng/mL"}, {"measurement": "Cmax", "setting": "[1]; male, CRPC, navarixin 100 mg + pembrolizumab 200 mg, Cycle 1 day 1, n=20", "value": 298, "unit": "ng/mL"}, {"measurement": "Geometric mean trough concentration", "setting": "[1]; navarixin 30 mg, steady state", "value": 7.71, "unit": "ng/mL"}, {"measurement": "Geometric mean trough concentration", "setting": "[1]; navarixin 100 mg, steady state", "value": 14.5, "unit": "ng/mL"}, {"measurement": "Steady-state exposure, 100-mg dose compared with 30-mg dose", "setting": "[1]; steady state", "value": "approximately 2.5 fold"}, {"measurement": "Effect on neutrophil counts", "setting": "[2]", "value": "reductions in absolute neutrophil count (ANC) as well as sputum neutrophil count"}, {"measurement": "Effect on neuroendocrine lineage plasticity and enzalutamide resistance", "setting": "[3]", "value": "reversed neuroendocrine lineage plasticity and enzalutamide resistance"}, {"measurement": "Effect on tumor growth", "setting": "[4]", "value": "inhibited tumor growth"}, {"measurement": "Effect on tumor growth", "setting": "[5]", "value": "inhibited tumor growth"}, {"measurement": "Effect on colony formation", "setting": "[6]", "value": "inhibited colony formation"}, {"measurement": "Effect on colony formation", "setting": "[7]", "value": "inhibited colony formation"}, {"measurement": "Effect on apoptosis of malignant cells", "setting": "[8]", "value": "induced apoptosis"}]}, {"molecule": "CC(C)Cc1ccc([C@@H](C)C(=O)NS(C)(=O)=O)cc1", "note": "[reparixin]", "values": [{"measurement": "Benefit of combination therapy compared with paclitaxel alone", "setting": "[9]", "value": "no benefit"}]}, {"molecule": "pembrolizumab", "values": [{"measurement": "ORR", "setting": "[10]", "value": 5, "unit": "%"}, {"measurement": "ORR", "setting": "[11]", "value": 0, "unit": "%"}, {"measurement": "ORR", "setting": "[12]", "value": 23, "unit": "%"}]}]}
